Data from patent publication US20250114460A1, “NOVEL PLK1 DEGRADATION INDUCING COMPOUND” (UPPTHERA, INC., priority 2021, published 2025).

What was measured:
Type in all cases: cell-based
PLK1 = target: T1, PLK1 (Homo sapiens, UniProt P53350); assay: Luciferase assay for PLK1 in HeLa LgBit (Plk1-HiBit KI) cell line; conditions: 300 nM compound, luminescence after 9 hours
T1 construct: endogenous in cells; host or cells: HeLa LgBit (Plk1-HiBit KI): HeLa stably expressing LgBit, with a CRISPR/Cas9 knock-in of HiBit at the endogenous PLK1 locus
T1 sequence (P53350 whole entry): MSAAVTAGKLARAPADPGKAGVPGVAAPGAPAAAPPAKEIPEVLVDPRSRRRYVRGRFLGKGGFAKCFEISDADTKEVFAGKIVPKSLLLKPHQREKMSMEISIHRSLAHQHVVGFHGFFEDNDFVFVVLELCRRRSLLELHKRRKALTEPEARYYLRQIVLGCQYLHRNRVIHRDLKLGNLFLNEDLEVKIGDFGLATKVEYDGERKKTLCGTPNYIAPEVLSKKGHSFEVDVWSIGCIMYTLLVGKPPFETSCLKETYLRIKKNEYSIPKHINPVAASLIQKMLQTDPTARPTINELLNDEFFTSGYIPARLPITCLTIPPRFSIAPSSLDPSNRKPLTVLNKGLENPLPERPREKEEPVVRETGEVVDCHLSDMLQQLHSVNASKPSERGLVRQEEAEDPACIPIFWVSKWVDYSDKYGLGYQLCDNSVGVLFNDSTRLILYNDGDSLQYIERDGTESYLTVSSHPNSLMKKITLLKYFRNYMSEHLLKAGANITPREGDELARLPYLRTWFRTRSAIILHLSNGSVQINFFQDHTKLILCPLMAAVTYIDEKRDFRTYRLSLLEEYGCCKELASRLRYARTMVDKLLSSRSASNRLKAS
Summary of the method: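 Luminescence, followed in real time after adding compound at 300 nM and Endurazine substrate, is reported relative to DMSO-treated wells. Cells are a HeLa LgBit line with a Plk1-HiBit knock-in, synchronized by 2 mM thymidine for 24 h, released, and cultured 18 h before treatment.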

NCI-H526 cell line = assay: Cell viability assay for H526 cell (EZ-Cytox); conditions: Homo sapiens, NCI-H526, 120 h; H526 cells, 5 days, 3000 nM to 0.46 nM
Summary of the method: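 Read-out was EZ-Cytox colorimetric absorbance at 450 nm, taken after brief plate shaking, with IC50 derived. Before reading, H526 cells had been cultured with test compound for 5 days.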

MRC-5 cell line = assay: Cell viability assay for MRC-5 cell line (EZ-Cytox); conditions: Homo sapiens, MRC5, 120 h; MRC-5 normal cell line, 5 days, 10000 nM to 1.52 nM; N.D. = no cytotoxicity until 10 μM; read-out: Activity: IC50 value of Exemplary Compound to MRC-5 cell line
Protocol: 4. Cell Viability Assay for MRC-5 Cell Line
(1) Culture of MRC-5 Cell Line
Passage of cultured cells was maintained within P15.
(2) Treatment of Compounds of the Present Invention
Then, it was cultured in 37° C.
(3) Cytotoxicity Experiment
CO2 incubator for 4 hours.

SMILES	Activity: ratio of the luminescense value of each Exemplary Compound treatment group to DMSO treatment group (PLK1)	IC50 (NCI-H526 cell line) [µM]	IC50 (MRC-5 cell line) [µM]
CN1C(=O)C(F)(F)CN(C2CCCC2)c2nc(Nc3ccc(C(=O)NC4CCN(C(=O)CCN5CCN(c6cccc7c6C(=O)N(C6CCC(=O)NC6=O)C7=O)CC5)CC4)cc3OC(F)(F)F)ncc21 (stereo not drawn) [Compound 74, 4-((9-cyclopentyl-7,7-difluoro-5-methyl-6-oxo-6,7,8,9-tetrahydro-5H-pyrimido[4,5-b][1,4]diazepin-2-yl)amino)-N-(1-(3-(4-(2-(2,6-dioxopiperidin-3-yl)-1,3-dioxoisoindolin-4-yl)piperazin-1-yl)propanoyl)piperidin-4-yl)-3-(trifluoromethoxy)benzamide]	++ (++<0.6)	< 0.2	> 10
COc1cc(C(=O)NN2CCN(C(=O)CCC3CCN(c4cccc5c4C(=O)N(C4CCC(=O)NC4=O)C5=O)CC3)CC2)ccc1Nc1ncc2c(n1)N(C1CCCC1)CC(F)(F)C(=O)N2C (stereo not drawn) [Compound 76, 4-((9-cyclopentyl-7,7-difluoro-5-methyl-6-oxo-6,7,8,9-tetrahydro-5H-pyrimido[4,5-b][1,4]diazepin-2-yl)amino)-N-(4-(3-(1-(2-(2,6-dioxopiperidin-3-yl)-1,3-dioxoisoindolin-4-yl)piperidin-4-yl)propanoyl)piperazin-1-yl)-3-methoxybenzamide]	+++ (+++: <0.3)	< 0.1	> 10
COc1cc(C(=O)N(C)C2CCN(C(=O)CCN3CCN(c4cccc5c4C(=O)N(C4CCC(=O)NC4=O)C5=O)CC3)CC2)ccc1Nc1ncc2c(n1)N(C1CCCC1)CC(F)(F)C(=O)N2C (stereo not drawn) [Compound 77, 4-((9-cyclopentyl-7,7-difluoro-5-methyl-6-oxo-6,7,8,9-tetrahydro-5H-pyrimido[4,5-b][1,4]diazepin-2-yl)amino)-N-(1-(3-(4-(2-(2,6-dioxopiperidin-3-yl)-1,3-dioxoisoindolin-4-yl)piperazin-1-yl)propanoyl)piperidin-4-yl)-3-methoxy-N-methylbenzamide]	++ (++<0.6)	< 0.1	> 10
COc1cc(C(=O)NC2CCN(C(=O)CCN3CCN(c4cccc5c4C(=O)N(C4CCC(=O)NC4=O)C5=O)CC3)CC2)c(Cl)cc1Nc1ncc2c(n1)N(C1CCCC1)CC(F)(F)C(=O)N2C (stereo not drawn) [Compound 78, 2-chloro-4-((9-cyclopentyl-7,7-difluoro-5-methyl-6-oxo-6,7,8,9-tetrahydro-5H-pyrimido[4,5-b][1,4]diazepin-2-yl)amino)-N-(1-(3-(4-(2-(2,6-dioxopiperidin-3-yl)-1,3-dioxoisoindolin-4-yl)piperazin-1-yl)propanoyl)piperidin-4-yl)-5-methoxybenzamide]	+++ (+++: <0.3)	< 0.1	> 10
COc1cc(C(=O)NC2CCN(C(=O)COC3CCN(c4cccc5c4C(=O)N(C4CCC(=O)NC4=O)C5=O)CC3)CC2)ccc1Nc1ncc2c(n1)N(C1CCCC1)CC(F)(F)C(=O)N2C (stereo not drawn) [Compound 79, 4-((9-cyclopentyl-7,7-difluoro-5-methyl-6-oxo-6,7,8,9-tetrahydro-5H-pyrimido[4,5-b][1,4]diazepin-2-yl)amino)-N-(1-(2-((1-(2-(2,6-dioxopiperidin-3-yl)-1,3-dioxoisoindolin-4-yl)piperidin-4-yl)oxy)acetyl)piperidin-4-yl)-3-methoxybenzamide]	+++ (+++: <0.3)	< 0.1	> 10
COc1cc(C(=O)NC2CCN(C(=O)CCN3CCN(c4cccc5c4CN(C4CCC(=O)NC4=O)C5=O)CC3)CC2)ccc1Nc1ncc2c(n1)N(C1CCCC1)CC(F)(F)C(=O)N2C (stereo not drawn) [Compound 81, 4-((9-cyclopentyl-7,7-difluoro-5-methyl-6-oxo-6,7,8,9-tetrahydro-5H-pyrimido[4,5-b][1,4]diazepin-2-yl)amino)-N-(1-(3-(4-(2-(2,6-dioxopiperidin-3-yl)-1-oxoisoindolin-4-yl)piperazin-1-yl)propanoyl)piperidin-4-yl)-3-methoxybenzamide]	++ (++<0.6)	< 0.05	> 10
COc1cc(C(=O)NC2CCN(C(=O)CCN3CCN(c4ccc5c(c4)CN(C4CCC(=O)NC4=O)C5=O)CC3)CC2)ccc1Nc1ncc2c(n1)N(C1CCCC1)CC(F)(F)C(=O)N2C (stereo not drawn) [Compound 82, 4-((9-cyclopentyl-7,7-difluoro-5-methyl-6-oxo-6,7,8,9-tetrahydro-5H-pyrimido[4,5-b][1,4]diazepin-2-yl)amino)-N-(1-(3-(4-(2-(2,6-dioxopiperidin-3-yl)-1-oxoisoindolin-5-yl)piperazin-1-yl)propanoyl)piperidin-4-yl)-3-methoxybenzamide]	++ (++<0.6)	< 0.03	> 10
COc1cc(C(=O)N2CCN(CCN3CCN(c4ccc5c(c4)C(=O)N(C4CCC(=O)NC4=O)C5=O)CC3)CC2)ccc1Nc1ncc2c(n1)N(C1CCCC1)CC(F)(F)C(=O)N2C (stereo not drawn) [Compound 89, 5-(4-(2-(4-(4-((9-cyclopentyl-7,7-difluoro-5-methyl-6-oxo-6,7,8,9-tetrahydro-5H-pyrimido[4,5-b][1,4]diazepin-2-yl)amino)-3-methoxybenzoyl)piperazin-1-yl)ethyl)piperazin-1-yl)-2-(2,6-dioxopiperidin-3-yl)isoindoline-1,3-dione]	++ (++<0.6)	< 0.4	> 10
COc1cc(C(=O)N2CCN(CCCN3CCN(c4ccc5c(c4)C(=O)N(C4CCC(=O)NC4=O)C5=O)CC3)CC2)ccc1Nc1ncc2c(n1)N(C1CCCC1)CC(F)(F)C(=O)N2C (stereo not drawn) [Compound 90, 5-(4-(3-(4-(4-((9-cyclopentyl-7,7-difluoro-5-methyl-6-oxo-6,7,8,9-tetrahydro-5H-pyrimido[4,5-b][1,4]diazepin-2-yl)amino)-3-methoxybenzoyl)piperazin-1-yl)propyl)piperazin-1-yl)-2-(2,6-dioxopiperidin-3-yl)isoindoline-1,3-dione]	++ (++<0.6)	< 0.4	> 10
COc1cc(C(=O)N2CCN(CCCCN3CCN(c4ccc5c(c4)C(=O)N(C4CCC(=O)NC4=O)C5=O)CC3)CC2)ccc1Nc1ncc2c(n1)N(C1CCCC1)CC(F)(F)C(=O)N2C (stereo not drawn) [Compound 91, 5-(4-(4-(4-(4-((9-cyclopentyl-7,7-difluoro-5-methyl-6-oxo-6,7,8,9-tetrahydro-5H-pyrimido[4,5-b][1,4]diazepin-2-yl)amino)-3-methoxybenzoyl)piperazin-1-yl)butyl)piperazin-1-yl)-2-(2,6-dioxopiperidin-3-yl)isoindoline-1,3-dione]	++ (++<0.6)	< 0.4	> 10
COc1cc(C(=O)N2CCN(C/C=C/CN3CCN(c4ccc5c(c4)C(=O)N(C4CCC(=O)NC4=O)C5=O)CC3)CC2)ccc1Nc1ncc2c(n1)N(C1CCCC1)CC(F)(F)C(=O)N2C (stereo not drawn) [Compound 92, (E)-5-(4-(4-(4-(4-((9-cyclopentyl-7,7-difluoro-5-methyl-6-oxo-6,7,8,9-tetrahydro-5H-pyrimido[4,5-b][1,4]diazepin-2-yl)amino)-3-methoxybenzoyl)piperazin-1-yl)but-2-en-1-yl)piperazin-1-yl)-2-(2,6-dioxopiperidin-3-yl)isoindoline-1,3-dione]	++ (++<0.6)	< 0.2	> 10
COc1cc(C(=O)N2CCC(CCN3CCN(c4ccc5c(c4)C(=O)N(C4CCC(=O)NC4=O)C5=O)CC3)CC2)ccc1Nc1ncc2c(n1)N(C1CCCC1)CC(F)(F)C(=O)N2C (stereo not drawn) [Compound 98, 5-(4-(2-(1-(4-((9-cyclopentyl-7,7-difluoro-5-methyl-6-oxo-6,7,8,9-tetrahydro-5H-pyrimido[4,5-b][1,4]diazepin-2-yl)amino)-3-methoxybenzoyl)piperidin-4-yl)ethyl)piperazin-1-yl)-2-(2,6-dioxopiperidin-3-yl)isoindoline-1,3-dione]	++ (++<0.6)	< 0.4	> 10
COc1cc2c(cc1Nc1ncc3c(n1)N(C1CCCC1)CC(F)(F)C(=O)N3C)CCN(C1CCN(C(=O)CCN3CCN(c4cccc5c4C(=O)N(C4CCC(=O)NC4=O)C5=O)CC3)CC1)C2=O (stereo not drawn) [Compound 102, 4-(4-(3-(4-(6-((9-cyclopentyl-7,7-difluoro-5-methyl-6-oxo-6,7,8,9-tetrahydro-5H-pyrimido[4,5-b][1,4]diazepin-2-yl)amino)-7-methoxy-1-oxo-3,4-dihydroisoquinolin-2(1H)-yl)piperidin-1-yl)-3-oxopropyl)piperazin-1-yl)-2-(2,6-dioxopiperidin-3-yl)isoindoline-1,3-dione]	++ (++<0.6)	< 0.4	14.4
